# Experimental data taken from patent US11951094B2, “TLR2 modulator compounds, pharmaceutical compositions and uses thereof” (Axial Therapeutics, Inc., priority 2020, dated 2024).
# Experiments:
# TLR2 [1] = target: TLR2 (Homo sapiens, UniProt O60603); experiment: TLR2 agonist screening assay, HEK-Blue TLR2 reporter cell line (NF-kB-driven SEAP, absorbance at 600 nm); assay type: cell-based; design: host or cells: HEK-293 (HEK-Blue TLR2 reporter cell line); conditions: HEK-Blue TLR2 reporter cells, agonist mode; average of all runs (Table 4)
# TLR2 (Homo sapiens, UniProt O60603), sequence (O60603 21-784): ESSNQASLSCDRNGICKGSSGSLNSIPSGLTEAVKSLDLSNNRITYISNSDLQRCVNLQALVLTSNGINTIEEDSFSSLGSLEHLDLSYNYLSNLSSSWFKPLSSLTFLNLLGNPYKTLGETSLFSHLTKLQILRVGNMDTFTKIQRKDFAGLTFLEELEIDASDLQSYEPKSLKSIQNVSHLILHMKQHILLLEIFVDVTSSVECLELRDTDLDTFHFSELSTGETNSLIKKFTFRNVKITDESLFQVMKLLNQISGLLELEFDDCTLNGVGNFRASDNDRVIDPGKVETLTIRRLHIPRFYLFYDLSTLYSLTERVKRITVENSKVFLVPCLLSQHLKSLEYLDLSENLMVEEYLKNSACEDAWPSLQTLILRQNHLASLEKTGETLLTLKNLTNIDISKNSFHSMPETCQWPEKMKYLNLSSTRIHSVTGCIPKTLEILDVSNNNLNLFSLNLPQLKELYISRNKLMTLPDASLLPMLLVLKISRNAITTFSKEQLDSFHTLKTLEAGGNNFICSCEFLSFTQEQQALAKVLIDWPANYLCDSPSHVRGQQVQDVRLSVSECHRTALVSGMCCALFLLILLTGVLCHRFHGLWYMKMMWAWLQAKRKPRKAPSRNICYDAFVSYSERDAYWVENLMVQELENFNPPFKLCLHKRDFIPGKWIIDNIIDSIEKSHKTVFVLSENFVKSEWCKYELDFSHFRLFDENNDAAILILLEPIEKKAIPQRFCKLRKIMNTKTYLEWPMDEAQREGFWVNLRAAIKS
# In short: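 HEK-293 cells expressing TLR2 with NF-kB-driven SEAP were plated at 40,000 per well. After 16-24 h, they were treated overnight with diluted agonists in detection medium (1% DMSO final). Absorbance at 600 nm was read, and EC50 values were fitted.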
# TLR2 [2] = target: T1, TLR2 (Mus musculus, UniProt Q9QUN7); experiment: TLR2 functional assay, cytokine release from RAW 264.7 mouse macrophage cell line; assay type: cell-based; conditions: average of all runs
# T1 construct: endogenous in cells; host or cells: RAW 264.7
# T1 sequence (Q9QUN7 25-784): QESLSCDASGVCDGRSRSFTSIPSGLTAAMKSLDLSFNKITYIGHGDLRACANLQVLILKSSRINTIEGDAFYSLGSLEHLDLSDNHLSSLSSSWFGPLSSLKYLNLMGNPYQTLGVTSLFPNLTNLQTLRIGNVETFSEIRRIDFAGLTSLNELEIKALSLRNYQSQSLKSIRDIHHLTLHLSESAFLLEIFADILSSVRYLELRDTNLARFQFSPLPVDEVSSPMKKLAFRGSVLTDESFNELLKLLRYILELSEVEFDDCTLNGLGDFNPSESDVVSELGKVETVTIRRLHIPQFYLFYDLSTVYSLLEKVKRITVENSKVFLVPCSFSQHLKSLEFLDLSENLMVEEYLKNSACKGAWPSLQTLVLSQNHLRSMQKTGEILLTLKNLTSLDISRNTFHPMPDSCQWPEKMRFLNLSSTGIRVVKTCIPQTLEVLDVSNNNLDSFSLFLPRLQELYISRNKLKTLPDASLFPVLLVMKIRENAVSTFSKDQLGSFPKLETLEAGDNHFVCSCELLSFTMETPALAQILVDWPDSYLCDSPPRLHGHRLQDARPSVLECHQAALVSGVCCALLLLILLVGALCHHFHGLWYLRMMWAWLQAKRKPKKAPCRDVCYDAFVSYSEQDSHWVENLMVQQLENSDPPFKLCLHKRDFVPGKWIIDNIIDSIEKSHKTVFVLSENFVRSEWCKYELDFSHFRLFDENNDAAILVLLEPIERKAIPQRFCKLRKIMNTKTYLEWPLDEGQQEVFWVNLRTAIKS
# Protocol: Cells of the immune system respond to TLR agonists in part by secreting cytokines. Functional assays for TLR2 agonists measure cytokine release from purified immune cells or immortalized cell lines derived from immune cells. Cytokine release is measured by standard ELISA approaches or multiplexed analysis using the Meso Scale Discovery (MSD) platform.
# Purified primary human peripheral blood mononuclear cells or RAW 264.7 mouse macrophage cell line cells are plated at approximately 40,000 cells per well. Cells are treated with agonist compounds and assays 6-24 hours post-treatment for cytokines released into the cell culture media.
# Following assay measurements utilizing either HEK-Blue detection or cytokine release, all data is analyzed with the GraphPad Prism8 statistical package to determine EC50, binding and activity metrics for the TLR2 modulators.
# Numerous cell lines derived from various cell types can respond to TLR2 agonists with stereotyped cytokine and chemokine secretion. In particular, cell lines derived from macrophages respond robustly to TLR2 agonists by secreting a wide array of cytokines, including (but not limited to) TNF-alpha, IL-1, IL-10 and IL-12. The human monocytic cell line THP-1, the mouse macrophage line RAW-264.7, and the rat macrophage line NR8383 were used. For each assay, the respective cell lines were plated into 96-well plates overnight and then treated the following day with various TLR2-engaging compounds at varying concentrations. The next day, supernatants were collected and assayed by multiplex immunodetection for cytokines released (MSD detection kits for respective species).
# Data provided in Table 5 is generated using protocols described in Example 45 and 46.
Structure (SMILES),EC50 (TLR2 [1]),EC50 (TLR2 [2])
"CCCCCCNC(=O)[C@H](CNC(=O)c1ccc(C(=O)N2C[C@@H](C(=O)N[C@H]3C[C@@H]3c3ccccc3)[C@H](C(=O)N[C@H]3C[C@@H]3c3ccccc3)C2)cc1)NC(=O)Cc1ccc(F)cc1 [Compound 138, (3S,4S)-1-(4-(((S)-2-(2-(4-fluorophenyl)acetamido)-3-(hexylamino)-3-oxopropyl)carbamoyl)benzoyl)-N3,N4-bis((1S,2R)-2-phenylcyclopropyl) pyrrolidine-3,4-dicarboxamide]",0.1 to 50 nM,> 1000 nM
"CCCCCCCCCC(=O)N[C@@H](CNC(=O)c1ccc(C(=O)N2C[C@@H](C(=O)N[C@H]3C[C@@H]3c3ccccc3)[C@H](C(=O)N[C@H]3C[C@@H]3c3ccccc3)C2)cc1)C(=O)NCCCCCC [Compound 175, (3S,4S)-1-(4-(((S)-2-decanamido-3-(hexylamino)-3-oxopropyl)carbamoyl)benzoyl)-N3,N4-bis ((1S,2R)-2-phenylcyclopropyl) pyrrolidine-3,4-dicarboxamide]",0.1 to 50 nM,51 to 350 nM
"CCCCCCCNC(=O)[C@@H]1CN(C(=O)c2ccc(C(=O)N3C[C@@H](C(=O)N[C@H]4C[C@@H]4c4ccccc4)[C@H](C(=O)N[C@H]4C[C@@H]4c4ccccc4)C3)cc2)CCN1C(C)=O [Compound 258, (3S,4S)-1-(4-((S)-4-acetyl-3-(heptylcarbamoyl)piperazine-1-carbonyl)benzoyl)-N3,N4-bis((1S,2R)-2-phenylcyclopropyl)pyrrolidine-3,4-dicarboxamide]",> 1000 nM,–
"CCCCCCCCCC(=O)N[C@@H](Cc1nnc(-c2ccc(C(=O)N3C[C@@H](C(=O)N[C@H]4C[C@@H]4c4ccccc4)[C@H](C(=O)N[C@H]4C[C@@H]4c4ccccc4)C3)cc2)o1)C(=O)NCCCCCC [Compound 259, (3S,4S)-1-(4-(5-((S)-2-decanamido-3-(hexylamino)-3-oxopropyl)-1,3,4-oxadiazol-2-yl)benzoyl)-N3,N4-bis((1S,2R)-2-phenylcyclopropyl)pyrrolidine-3,4-dicarboxamide]",351 to 1000 nM,–
"CCCCCCCCCC(=O)N[C@@H](CNc1nc2ccc(C(=O)N3C[C@@H](C(=O)N[C@H]4C[C@@H]4c4ccccc4)[C@H](C(=O)N[C@H]4C[C@@H]4c4ccccc4)C3)cc2o1)C(=O)NCCCCCC [Compound 261, (3S,4S)-1-(2-(((S)-2-decanamido-3-(hexylamino)-3-oxopropyl)amino)benzo[d]oxazole-6-carbonyl)-N3,N4-bis((1S,2R)-2-phenylcyclopropyl)pyrrolidine-3,4-dicarboxamide]",> 1000 nM,–
"CCCCCCCCCC(=O)N[C@@H](CNc1nc2ccc(C(=O)N3C[C@@H](C(=O)N[C@H]4C[C@@H]4c4ccccc4)[C@H](C(=O)N[C@H]4C[C@@H]4c4ccccc4)C3)cc2s1)C(=O)NCCCCCC [Compound 262, (3S,4S)-1-(2-(((S)-2-decanamido-3-(hexylamino)-3-oxopropyl)amino)benzo[d]thiazole-6-carbonyl)-N3,N4-bis((1S,2R)-2-phenylcyclopropyl)pyrrolidine-3,4-dicarboxamide]",> 1000 nM,–
"CCCCCNC(=O)[C@@H]1CN(C(=O)c2ccc(C(=O)N3C[C@@H](C(=O)N[C@H]4C[C@@H]4c4ccccc4)[C@H](C(=O)N[C@H]4C[C@@H]4c4ccccc4)C3)cc2)CCN1C(C)=O [Compound 264, (3S,4S)-1-(4-((S)-4-acetyl-3-(pentylcarbamoyl)piperazine-1-carbonyl)benzoyl)-N3,N4-bis((1S,2R)-2-phenylcyclopropyl) pyrrolidine-3,4-dicarboxamide]",> 1000 nM,–
"CCCNC(=O)[C@@H]1CN(C(=O)c2ccc(C(=O)N3C[C@@H](C(=O)N[C@H]4C[C@@H]4c4ccccc4)[C@H](C(=O)N[C@H]4C[C@@H]4c4ccccc4)C3)cc2)CCN1C(C)=O [Compound 265, (3S,4S)-1-(4-((S)-4-acetyl-3-(propylcarbamoyl)piperazine-1-carbonyl)benzoyl)-N3,N4-bis((1S,2R)-2-phenylcyclopropyl) pyrrolidine-3,4-dicarboxamide]",> 1000 nM,–

# Now from value to molecule:
EC50 (TLR2 [1]),EC50 (TLR2 [2]),Structure (SMILES)
0.1 to 50 nM,> 1000 nM,"CCCCCCCCCCCNC(=O)N[C@H]1CN(C(c2ccc(C(=O)N3C[C@@H](C(=O)N[C@H]4C[C@@H]4c4ccccc4)[C@H](C(=O)N[C@H]4C[C@@H]4c4ccccc4)C3)cc2)C(F)(F)F)C[C@@H]1OC (single isomer, unassigned) [Compound 230, (3S,4S)—N3,N4-bis((1S,2R)-2-phenylcyclopropyl)-1-(4-((R*)-2,2,2-trifluoro-1-((3S,4S)-3-methoxy-4-(3-undecylureido)pyrrolidin-1-yl)ethyl)benzoyl)pyrrolidine-3,4-dicarboxamide]"
0.1 to 50 nM,51 to 350 nM,"CCCCCCCCCCCNC(=O)N[C@H]1CN(C(c2ccc(C(=O)N3C[C@@H](C(=O)N[C@H]4C[C@@H]4c4ccccc4)[C@H](C(=O)N[C@H]4C[C@@H]4c4ccccc4)C3)cc2)C(F)(F)F)C[C@@H]1OC (single isomer, unassigned) [Compound 231, (3S,4S)—N3,N4-bis((1S,2R)-2-phenylcyclopropyl)-1-(4-((S*)-2,2,2-trifluoro-1-((3S,4S)-3-methoxy-4-(3-undecylureido)pyrrolidin-1-yl)ethyl)benzoyl)pyrrolidine-3,4-dicarboxamide]"
0.1 to 50 nM,351 to 1000 nM,"CCCCCCCCCCCCCNC(=O)N[C@H]1CN(C(=O)c2ccc(C(=O)N3C[C@@H](C(=O)N[C@H]4C[C@@H]4c4ccccc4)[C@H](C(=O)N[C@H]4C[C@@H]4c4ccccc4)C3)cc2)C[C@@H]1OC [Compound 134, (3S,4S)-1-(4-((3S,4S)-3-methoxy-4-(3-tridecylureido)pyrrolidine-1-carbonyl)benzoyl)-N3,N4-bis((1S,2R)-2-phenylcyclopropyl)pyrrolidine-3,4-dicarboxamide]"
0.1 to 50 nM,51 to 350 nM,"CCCCCCCCC(=O)N[C@@H](CNC(=O)c1ccc(C(=O)N2C[C@@H](C(=O)N[C@H]3C[C@@H]3c3ccccc3)[C@H](C(=O)N[C@H]3C[C@@H]3c3ccccc3)C2)cc1)C(=O)NCCCCCC [Compound 140, (3S,4S)-1-(4-(((S)-3-(hexylamino)-2-nonanamido-3-oxopropyl)carbamoyl)benzoyl)-N3,N4-bis((1S,2R)-2-phenylcyclopropyl)pyrrolidine-3,4-dicarboxamide]"
0.1 to 50 nM,> 1000 nM,"CCCCCCCCCCCCCCC(=O)N[C@@H]1CCCN(C(=O)c2ccc(C(=O)N3C[C@@H](C(=O)N[C@H]4C[C@@H]4c4ccccc4)[C@H](C(=O)N[C@H]4C[C@@H]4c4ccccc4)C3)cc2)C1 [Compound 152, (3S,4S)-1-(4-((R)-3-pentadecanamidopiperidine-1-carbonyl)benzoyl)-N3,N4-bis((1S,2R)-2-phenylcyclopropyl)pyrrolidine-3,4-dicarboxamide]"
351 to 1000 nM,–,"CCCCCCCCCNC(=O)[C@@H]1CN(C(=O)c2ccc(C(=O)N3C[C@@H](C(=O)N[C@H]4C[C@@H]4c4ccccc4)[C@H](C(=O)N[C@H]4C[C@@H]4c4ccccc4)C3)cc2)CCN1C(C)=O [Compound 257, (3S,4S)-1-(4-((S)-4-acetyl-3-(nonylcarbamoyl)piperazine-1-carbonyl)benzoyl)-N3,N4-bis((1S,2R)-2-phenylcyclopropyl)pyrrolidine-3,4-dicarboxamide]"
0.1 to 50 nM,–,"CCCCCCCCCCCCCNC(=O)N[C@H]1CN(c2nnc(-c3ccc(C(=O)N4C[C@@H](C(=O)N[C@H]5C[C@@H]5c5ccccc5)[C@H](C(=O)N[C@H]5C[C@@H]5c5ccccc5)C4)cc3)o2)C[C@@H]1OC [Compound 260, (3S,4S)-1-(4-(5-((3S,4S)-3-methoxy-4-(3-tridecylureido)pyrrolidin-1-yl)-1,3,4-oxadiazol-2-yl)benzoyl)-N3,N4-bis((1S,2R)-2-phenylcyclopropyl)pyrrolidine-3,4-dicarboxamide]"
351 to 1000 nM,–,"CCCCCCCCCC(=O)N[C@@H](COCc1ccc(C(=O)N2C[C@@H](C(=O)N[C@H]3C[C@@H]3c3ccccc3)[C@H](C(=O)N[C@H]3C[C@@H]3c3ccccc3)C2)cc1)C(=O)NCCCCCC [Compound 263, (3S,4S)-1-(4-(((S)-2-decanamido-3-(hexylamino)-3-oxopropoxy)methyl)benzoyl)-N3,N4-bis((1S,2R)-2-phenylcyclopropyl) pyrrolidine-3,4-dicarboxamide]"
351 to 1000 nM,–,"CCCCCCCCCC(=O)N[C@@H](CNCc1ccc(C(=O)N2C[C@@H](C(=O)N[C@H]3C[C@@H]3c3ccccc3)[C@H](C(=O)N[C@H]3C[C@@H]3c3ccccc3)C2)cc1)C(=O)NCCCCCC [Compound 266, (3S,4S)-1-(4-((((S)-2-decanamido-3-(hexylamino)-3-oxopropyl)amino)methyl)benzoyl)-N3,N4-bis((1S,2R)-2-phenylcyclopropyl) pyrrolidine-3,4-dicarboxamide]"
